“Also recorded” adds a separate entry of the source.
Assays:
potato tubers [1] = assay: Experiment 1.2: azoxystrobin sprayed on uncovered pre-germinated potato tubers at about 10° C. (simulated cold stress), plant growth vs check; assay type: in vivo; conditions: 3 g/ha; for % increased growth vs Check (visual plant growth): pre-germinated, 21 days after application
Procedure: A commercially available SC100 formulation of azoxystrobin was sprayed directly to uncovered potato tubers, which were sitting on soil (50% drench soil mixed with 50% sand), at: • 3 g/ha
(§1) The spray volume was 200 l/ha.
(§2) The check had no treatment of azoxystrobin.
(§3) The trials were repeated in 6 troughs with 3 tubers each.
Varieties tested were Allians, Belana, Marabel and Roberta. Each were tested as pre-germinated (i.e. treatment was applied when the potato tuber had 2-3 mm long sprouts) tubers.
The temperature was held at about 10° C. during the day and night to simulate cold stress.
(§4) No pest pressure present.
Visual Plant Growth was Measured 21 Days after Application: […]

potato tubers [2] = assay: Experiment 1.1: azoxystrobin sprayed on uncovered potato tubers, no cold stress, plant growth vs check; assay type: in vivo
Procedure: A commercially available SC100 formulation of azoxystrobin was sprayed directly to uncovered potato tubers, which were sitting on soil (50% drench soil mixed with 50% sand), at two different rates: • 7.5 g/ha • 3.8 g/ha
as §1, §2, §3
Varieties tested were Allians, Belana, Marabel and Roberta. Each were tested as pre-germinated (i.e. treatment was applied when the potato tuber had 2-3 mm long sprouts) tubers and as non germinated tubers.
The temperature was about 17° C. during the day and about 15° C. during the night.
as §4
Plant vitality was measured with the “Green Seeker” system.

[3] = 21 and 34 days after application

SMILES: CO/C=C(/C(=O)OC)c1ccccc1Oc1cc(Oc2ccccc2C#N)ncn1 [azoxystrobin]
- Number of shoots in comparison with the check (potato tubers [1]; [3]): increased number of shoots
- Shoot length in comparison with the check (potato tubers [1]; [3]): increased shoot length
- Visually more shoot than check (potato tubers [1]; across varieties): up to 38%
- Growth of treated tubers vs untreated check (potato tubers [1]; all varieties): grew better than untreated check
- % increased growth vs Check (visual plant growth) (potato tubers [1]; variety Allians): 38%
- % increased growth vs Check (visual plant growth) (potato tubers [1]; variety Belana): 12%
- % increased growth vs Check (visual plant growth) (potato tubers [1]; variety Marabel): 37%
- % increased growth vs Check (visual plant growth) (potato tubers [1]; variety Roberta): 10%
- Shoot number in comparison with the check (potato tubers [2]; 7.5 g/ha and 3.8 g/ha, spray 200 l/ha, about 17° C. day/15° C. night, Allians, Belana, Marabel, Roberta, pre-germinated and non germinated tubers): increased number of shoots
- Shoot fresh mass in comparison with the check (potato tubers [2]; 7.5 g/ha and 3.8 g/ha, spray 200 l/ha, about 17° C. day/15° C. night, all varieties): increased shoot fresh mass; also recorded: significantly increased
- Plant vitality (Green Seeker) vs check (potato tubers [2]; Allians and Roberta, pre-germinated tubers, about 17° C. day/15° C. night): better than check
- Plant vitality (Green Seeker) in comparison with the check, FIG. 3 (potato tubers [2]; each trial, 7.5 g/ha and 3.8 g/ha): increased plant vitality
- Plant vitality (Green Seeker) vs check (potato tubers [2]; low rate treatment (3.8 g/ha), about 17° C. day/15° C. night): often showed a lower value

Reference: US20160073633A1, “CROP ENHANCEMENT” (SYNGENTA PARTICIPATIONS AG, priority 2013, published 2016)
